From patent US4978783A, “2,6-dimethoxyhydroquinone-3-mercaptopropionic acid, 2,6-dimethoxyhydroquinone-3-mercaptoacetic acid, and antitumor use thereof” (National Science Council, priority 1990, dated 1990)
In brackets after ≈: the same amount, converted by molar mass. Entries after “also recorded” stand apart in the source; their conditions may differ. Each block holds one compound with its values, some of them ahead of it.

Tests used:
[1] = system: KB (oral epidermoid carcinoma) cells; assay: Cytotoxicity against KB cells by the MTT method; format: cell-based, human; conditions: 5760 min
Excerpt: (§1) A convenient cytotoxicity assay adopted in this example for the evaluation of antitumor activity is the MTT method disclosed in an article by Twentyman and Luscombe, entitled "A study of some variables in a tetrazolium dye (MTT) based assay for cell growth and chemosensitivity" Br. J. Cancer. 56, 279-285 (1987).
(§2) Four different human cancer cell lines were used in this assay. These were KB (oral epidermoid carcinoma); Colo-205 (colon adenocarcinoma); HeLa (cervical carcinoma); and HEP-2 (larynx epidermoid carcinoma).
(§3) Cells were taken from exponential phase cultures and were allowed to grow in a plate containing 96 wells using RPMI-1640 medium supplemented with 5% fetal bovine serum, 1 mM glutamine and antibiotics (penicillin and streptomycin) at 37° C. in a CO2 incubator. Cell suspensions were trypsinized and disaggregated. 3×10^3 cells were inoculated into each well in 0.18 ml of medium, to which 0.02 ml of drug was added. After 4 days of culture, 0.1 mg of 3-(4,5-dimethylthiazol-2-yl)-2,5-diphenyltetrazolium bromide (MTT) was added to each well and the plate incubated for 4 hours. The medium was then removed, 0.2 ml DMSO was added to each well and the plate agitated for 10 min. The optical density of each well was measured at a 545 nm test wavelength and a 690 nm reference wavelength using a Titertek Multiskan plate reader. Absorbance levers from drug tested cells were corrected against untreated control values.
(§4) *Cytotoxicity index (CI) = 100% × [1(O.D. of treated cells / O.D. o

[2] = system: Colo-205 (colon adenocarcinoma) cells; assay: Cytotoxicity assay against Colo-205 cells by the MTT method; format: cell-based, human; conditions: for CI: 5760 min; for Cytotoxicity index (CI): Table 1, 4 days; for CI value compared with DMQ, in words: versus DMQ
Method: Four different human cancer cell lines were used in this assay.
as §3, with “Cell” for “Cells were taken from exponential phase cultures and were allowed to grow in a plate containing 96 wells using RPMI-1640 medium supplemented with 5% fetal bovine serum, 1 mM glutamine and antibiotics (penicillin and streptomycin) at 37° C. in a CO2 incubator. Cell”
as §4

[3] = system: HEP-2 (larynx epidermoid carcinoma) cells; assay: Cytotoxicity against HEP-2 cells by the MTT method; format: cell-based, human; conditions: 5760 min
Excerpt: as §1, §2, §3, §4

[4] = cited from earlier work
[5] = system: HeLa (cervical carcinoma) cells; assay: Cytotoxicity against HeLa cells by the MTT method; format: cell-based, human; conditions: 5760 min
Excerpt: as §1, §2, §3, §4

human tumor cell lines = assay: Cytotoxicity against four/several human tumor cell lines, (MTT method); format: cell-based; conditions: for cytotoxicity at 100 µg/mL: 96 h, each alone, DMQ-MP 1 μg/ml or D-isoascorbic acid 100 μg/ml, read-out: cytotoxicity index (CI) value, summary; for cytotoxicity compared with DMQ, in words: drug without activator, versus DMQ; for cytotoxicity in combination with L-ascorbic acid or D-isoascorbic acid, in words: several human cancer cell lines, in vitro
Excerpt: as §1, §2, §3

[6] = Hydrophobicity (statement); format: physicochemical; conditions: to gain passage into the cell via the cell membrane
Solubility in H2O = format: physicochemical; conditions: for solubility relative to DMQ (times higher) / solubility: H2O, 27° C.; for solubility relative to DMQ (times higher): versus DMQ; for water-solubility, in words: compared with DMQ; for solubility: water
normal cells = conditions: background statement; cited from earlier work
[7] = background statement; cited from earlier work
[8] = background statement; cited from earlier work; remark: listed apart in the source
Ehrlich ascites = conditions: DMQ in combination with L-ascorbic acid; cited from earlier work
[9] = Table 3, L-ascorbate 100 μg/ml alone
[10] = Table 2, D-isoascorbic acid 100 μg/ml alone
[11] = Table 2, DMQ-MP 1 μg/ml + D-isoascorbic acid 100 μg/ml
[12] = Table 2, DMQ-MP 1 μg/ml, no activator
[13] = Table 3, DMQ-MA 1 μg/ml + L-ascorbate 100 μg/ml
[14] = Table 3, DMQ-MA 1 μg/ml, no activator

SMILES: O=C1O[C@H]([C@@H](O)CO)C(O)=C1O [L-ascorbate, reference compound]
CI [1, 9]: 0.4% | CI [2, 9]: 5% | CI [3, 9]: 9% | concentration of L-ascorbate in the human body [4]: ≤ 1 mM | CI [5, 9]: 2%

SMILES: O=C1O[C@H]([C@H](O)CO)C(O)=C1O [D-isoascorbic acid, reference compound]
CI [1, 10]: 11% | CI [2, 10]: 24% | CI [3, 10]: 13% | cytotoxicity at 100 µg/mL (human tumor cell lines; four human tumor cell lines): < 25% | CI [5, 10]: 5%

hydrophobicity, in words [6]: a certain degree of hydrophobicity | solubility relative to DMQ (times higher) (Solubility in H2O): about 70 times | solubility (Solubility in H2O): 5330 µg/mL (≈ 19.4 mM)
SMILES: COc1cc(O)c(SCCC(=O)O)c(OC)c1O [DMQ-MP, 2,6-dimethoxyhydroquinone-3-mercaptopropionic acid]
CI [1, 11]: 79% | CI [1, 12]: 10% | water-solubility, in words (Solubility in H2O): a lot more water-soluble than DMQ; also recorded: significantly improved water-solubility in comparison with DMQ | Cytotoxicity index (CI) ([2]; drug 10 μg/ml, no L-ascorbate): 43.5% | CI [2, 11]: 78% | CI [2, 12]: 17% | CI value compared with DMQ, in words ([2]; drug 10 μg/ml): significantly lower than DMQ | CI [3, 11]: 77% | CI [3, 12]: 13% | cytotoxicity at 100 µg/mL (human tumor cell lines; four human tumor cell lines): < 25% | CI values, summary (human tumor cell lines; DMQ-MP 1 μg/ml in combination with D-isoascorbic acid 100 μg/ml, four human tumor cell lines, 5760 min): 77-88% | cytotoxicity compared with DMQ, in words (human tumor cell lines): less cytotoxic | cytotoxicity in combination with L-ascorbic acid or D-isoascorbic acid, in words (human tumor cell lines): greatly augmented; also recorded: act synergistically | CI [5, 11]: 88% | CI [5, 12]: 11%

hydrophobicity, in words [6]: a certain degree of hydrophobicity | solubility relative to DMQ (times higher) (Solubility in H2O): about 70 times | solubility (Solubility in H2O): 5000 µg/mL (≈ 19.2 mM)
SMILES: COc1cc(O)c(SCC(=O)O)c(OC)c1O [DMQ-MA, 2,6-dimethoxyhydroquinone-3-mercaptoacetic acid]
CI [1, 13]: 89% | CI [1, 14]: 0% | water-solubility, in words (Solubility in H2O): a lot more water-soluble than DMQ; also recorded: significantly improved water-solubility in comparison with DMQ | Cytotoxicity index (CI) ([2]; drug 10 μg/ml, L-ascorbate 1.0 μg/ml (so in the source)): 22.1% | CI [2, 13]: 86% | CI [2, 14]: 0% | CI value compared with DMQ, in words ([2]; drug 10 μg/ml): significantly lower than DMQ | CI [3, 13]: 86% | CI [3, 14]: 2% | cytotoxicity compared with DMQ, in words (human tumor cell lines): less cytotoxic | cytotoxicity in combination with L-ascorbic acid or D-isoascorbic acid, in words (human tumor cell lines): greatly augmented; also recorded: act synergistically | CI [5, 13]: 79% | CI [5, 14]: 3%

SMILES: COC1=CC(=O)C=C(OC)C1=O [DMQ, 2,6-dimethoxy-p-benzoquinone]
solubility (Solubility in H2O): 74 µg/mL (≈ 0.44 mM) | cytotoxicity to normal cells, in words (normal cells): certain degree of cytotoxicity; also recorded: destruction of normal cells | precipitation from the blood, in words [7]: precipitate from the blood easily | Cytotoxicity index (CI) ([2]; drug 1.0 μg/ml, L-ascorbate 100 μg/ml): 76.6% | Cytotoxicity index (CI) ([2]; drug 10 μg/ml, no L-ascorbate): 87.9% | solubility in water, in words [8]: poor solubility in water | effect in Ehrlich ascites-bearing mice, in words (Ehrlich ascites): effective
